Results reported in patent US8071575B2, “Methods and compounds for the targeted delivery of agents to bone for interaction therewith” (priority 2007, dated 2011).

Columns and labels:
[1] = test system: OVX rats; test: Femoral density via Archimedes' Principle (whole bone); format: in vivo, Sprague-Dawley female rats; conditions: OVX rats, three times per week for 6 weeks
Procedure: (§1) Animals. Six month old, bilaterally ovariectomized (OVX) or sham operated Sprague-Dawley female rats (Harlan Laboratories, Indianapolis, Ind.) were maintained at the University of Louisville Research Resources Center at 22° C. with a 12-h light/dark cycle and ad libitum access to tap water and rodent chow (Purina Laboratory Rodent Diet 5001). All animal procedures were approved by the Institutional Animal Care and Use Committee, which is certified by the American Association for Accreditation of Laboratory Animal Care.
(§2) In vivo experiments were conducted in order to investigate the efficacy of compounds of the presently-disclosed subject matter. In all of the experiments, OVX and sham operated rats were randomly divided into groups of 5-7 animals. In all of the studies experimental groups included: i) Sham-operated control (euthanized six weeks post surgery as a pretreatment control), ii) OVX control (euthanized six weeks post surgery as a pretreatment control), iii) Sham control receiving vehicle, iv) OVX control receiving vehicle, v) OVX receiving 17-ethinyl estradiol (equimolar concentration with a selected test compound), vi) OVX receiving alendronate (1.6 mg/kg), and vii) OVX receiving parathyroid hormone 1-34 (PTH) ([…]). 17-ethinyl estradiol (17 EE) is a free estrogenic agent known to be orally active, and can serve as an example of an anti-catabolic agent. Alendronate (Alen) is a bisphosphonate that is currently used to treat osteoporosis (e.g., Fosamax®, Merck & Co., Inc,), and can serve as an example of an anti-catabolic agent. Parathyroid hormone 1-34 (PTH) is an agent that can serve as an example of an anabolic agent. All compounds and vehicle (1% DMSO in corn oil) were administered three times per week orally by gavage except for PTH which was administered via a subcutaneous injection in a volume of 0.5 ml/kg body mass thrice per week. Compound administration was initiated 6 weeks following surgery and lasted for 6 weeks (18 doses total).
(§3) Compounds of the presently-disclosed subject matter were orally administered to OVX rats at various doses. As indicated above all BTE's were administered three times per week for 6 weeks.
(§4) Following 6 weeks of treatment, blood was obtained from each animal via cardiac puncture following an overnight fast and animals were subsequently euthanized via carbon dioxide asphyxiation. Blood was centrifuged immediately and the obtained serum samples were aliquoted and stored at −70° C. prior to analysis. Uteri were removed and fresh weights were obtained. Uterine masses were normalized to body mass at the end of the experiment. The left and right femora and left and right tibiae were subsequently collected from each animal, cleaned of soft tissue, and stored in saline at 4° C. prior to analysis.
Femoral Density via Archimedes' Principle. Right femora were submerged in distilled water and fully hydrated under a vacuum for 1 hr. Subsequently, the mass of each hydrated femur was obtained in air and when submerged in water. Densities were determined using Archimedes' Principle according to the following formula: density=[mass of hydrated femur/(mass of hydrated femur−mass of hydrated femur submerged in water)]×density of distilled water at a given temperature (See Keenan, et al. Comparison of bone density measurement techniques: DXA and Archimedes' principle. J Bone Miner Res 1997; 12:1903-7.). The obtained density measurements were associated with whole bone.

[2] = Hydroxyapatite (HA) Binding Assay; conditions: 10^−5 M analyte, 50 mM Tris-HCl pH 7.4, 1% DMSO; adjusted such that tetracycline = 100
Procedure: A Hydroxyapatite (HA) Binding Assay is used to determine whether compounds have an affinity for bone. Compounds of the presently-disclosed subject matter having a Bone Targeting Portion (RT) are studied using the HA Binding Assay. A 10^−3 M solution of each analyte was made in 100% dimethylsulfoxide (DMSO). A 100 fold dilution was then made to form a 10^−5 M solution in 50 mM Tris-HCl buffer, pH 7.4, 1% DMSO. Tetracycline was used as a reference analyte and approximately 50% was adsorbed to HA at the concentration of 10^−5 M. The HA slurry was 0.5 g/100 mL 50 mM Tris-HCl buffer, 1% DMSO.
For each analyte, two samples were prepared. For one sample, 1 mL of 10^−5 M analyte and 100 μL 50 mM Tris-HCl buffer, 1% DMSO was pipetted into a microcentrifuge tube. For the second sample, 1 mL of 10^−5 M analyte and 100 μL of the HA slurry was pipetted into a microcentrifuge tube. The samples were mixed gently by inversion for 4 minutes and then centrifuged at 12,000 g for 3 minutes to sediment the HA contained in those samples. The supernatant was transferred to another microcentrifuge tube.
An electronic spectral scan (ultraviolet-visible) from 220-520 nm was obtained for each analyte using a Varian Cary 300 Bio Scan. The blank was 50 mM Tris-HCl buffer, 1% DMSO. The wavelength of maximum absorbance (λmax) was determined, and the extinction coefficient (ε) was calculated using the Beer-Lambert Law.
The absorbance of the samples incubated with HA was measured at λmax, and the molar concentration of the analyte was then determined using the Beer-Lambert Law and the previously calculated extinction coefficient. The fraction adsorbed to HA for each sample was subsequently calculated.

[3] = test system: OVX rats; test: Regional femoral density via Archimedes' Principle; format: in vivo, Sprague-Dawley female rats; conditions: three times per week for 6 weeks
Procedure: as §1, §2, §3
Following 6 weeks of treatment, blood was obtained from each animal via cardiac puncture following an overnight fast and animals were subsequently euthanized via carbon dioxide asphyxiation. […]
Regional Femoral Density via Archimedes' Principle. […] Briefly, each femur was measured with a Cen-Tech Digital Caliper and a cut was made from each end at 20% of the length of the femur plus half the width of the blade. Subsequently, the bone marrow was washed out of the femoral diaphysis and the Archimedes density for each of the three femoral regions was determined as described above.

[4] = test system: OVX rats; test: Volume fraction, ex vivo micro-computed tomography of tibia; format: in vivo, Sprague-Dawley female rats; conditions: present-tense example, no data or figure
Procedure: as §1, §2, §3, §4
Volume Fraction—Ex vivo micro-computed tomography (μCT). Volume fraction is a representative value for the amount of bone that occupies a given volume or space. High resolution image data were collected using a customized micro-CT system (ACTIS 150/225 system, BIR Inc., Lincolnshire, Ill.). The metaphysis of each right tibia was scanned over a three millimeter range and three-dimensional images were reconstructed. Data were subsequently processed to reveal the volume fraction (BV/TV) occupied by trabecular (cancellous) bone tissue, cortical bone tissue, and whole bone tissue. The resulting data provides information regarding the density of whole bone, cortical bone, and trabecular bone.

SMILES | whole bone density (right femora) ([1]; oral 3000 μg/kg) | Binding Index (binding to hydroxyapatite) [2] | regional bone density (proximal and distal left femur) ([3]; oral 3000 μg/kg) | volume fraction (BV/TV) of trabecular, cortical and whole bone tissue [4] | whole bone density (right femora) ([1]; oral 10, 100, or 1000 μg/kg) | regional bone density (left femur) ([3]; oral 10, 100, or 1000 μg/kg)
COc1ccc(NC(=O)CCC(=O)OC2CCC3C4CCC5=CC(=O)CCC5(C)C4CCC23C)c(O)c1C(N)=O (centres unmarked) [Formula 33] | higher than that of the OVX animals | 140 | higher than that of the OVX animals | increase bone density | – | –
COc1ccc(NC(=O)COCCOCCNC(=O)CCOC2CCC3C4CCc5cc(O)ccc5C4CCC23C)c(O)c1C(N)=O (centres unmarked) [Formula 123] | – | 160 | – | increase bone density | in the same ranges as those animals receiving 17-ethinyl estradiol (17 EE), Alendronate (Alen), or Parathyroid hormone 1-34 (PTH) | increased regional bone densities, as compared to the OVX animals
